Among the data in ChEMBL document CHEMBL1138371, “Discovery of low nanomolar non-hydroxamate inhibitors of tumor necrosis factor-alpha converting enzyme (TACE)” (Bioorg Med Chem Lett, 2007) are Ki, inhibition and IC50 values, retold here.

Test [1] concerns the target Macrophage metalloelastase (Homo sapiens, UniProt P39900). Description: Inhibition of MMP12.
In a further test the target is T1, Matrilysin (Homo sapiens, UniProt P09237).
T1 sequence (P09237 whole entry): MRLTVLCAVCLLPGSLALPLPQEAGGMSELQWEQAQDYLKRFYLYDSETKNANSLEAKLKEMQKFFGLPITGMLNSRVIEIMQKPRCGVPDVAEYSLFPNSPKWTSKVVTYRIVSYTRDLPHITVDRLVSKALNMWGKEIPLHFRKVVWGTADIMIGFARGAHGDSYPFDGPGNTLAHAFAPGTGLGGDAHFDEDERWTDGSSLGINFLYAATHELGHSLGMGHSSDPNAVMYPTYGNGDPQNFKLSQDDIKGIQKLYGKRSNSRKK
Description: Inhibition of MMP7.

The target in another test is Collagenase 3 (Homo sapiens, UniProt P45452). The test is described as follows: Inhibition of MMP13.
In test [2] the target is 72 kDa type IV collagenase (Homo sapiens, UniProt P08253). Description: Inhibition of MMP2.
For a further test, the species on record is Homo sapiens. The test is described as follows: Inhibition of aggrecanase at 1 uM.
The next test addresses Stromelysin-1 (Homo sapiens, UniProt P08254). Description: Inhibition of MMP3.
In test [3] the target is Disintegrin and metalloproteinase domain-containing protein 17 (Sus scrofa, UniProt O77636). The test is described as follows: Inhibition of porcine TACE.
The test system of a further test is Blood. Description: Inhibition of LPS-stimulated TNFalpha production in human whole blood. Type of test: functional, tissue-based.
Test [4] has as its target Matrix metalloproteinase-9 (Homo sapiens, UniProt P14780). Description: Inhibition of MMP9.
A further test concerns the target T2, Interstitial collagenase (Homo sapiens, UniProt P03956).
T2 sequence (P03956 whole entry): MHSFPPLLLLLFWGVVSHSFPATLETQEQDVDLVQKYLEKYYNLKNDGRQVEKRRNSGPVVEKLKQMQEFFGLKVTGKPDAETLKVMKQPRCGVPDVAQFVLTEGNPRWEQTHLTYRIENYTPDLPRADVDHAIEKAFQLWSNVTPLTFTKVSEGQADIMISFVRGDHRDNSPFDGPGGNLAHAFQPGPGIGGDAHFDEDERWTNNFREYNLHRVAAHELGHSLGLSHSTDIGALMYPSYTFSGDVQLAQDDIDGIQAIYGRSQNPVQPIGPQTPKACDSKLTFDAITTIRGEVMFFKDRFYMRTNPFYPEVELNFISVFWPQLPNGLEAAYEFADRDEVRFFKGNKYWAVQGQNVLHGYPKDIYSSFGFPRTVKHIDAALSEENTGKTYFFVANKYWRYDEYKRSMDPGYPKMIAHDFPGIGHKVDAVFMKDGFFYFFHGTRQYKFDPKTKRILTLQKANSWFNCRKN
Description: Inhibition of MMP1.

SMILES strings stand for the structures. Bounds are passed on as bounds.

Chain of Stromelysin-1 (P08254 whole entry, the tested form may be a part): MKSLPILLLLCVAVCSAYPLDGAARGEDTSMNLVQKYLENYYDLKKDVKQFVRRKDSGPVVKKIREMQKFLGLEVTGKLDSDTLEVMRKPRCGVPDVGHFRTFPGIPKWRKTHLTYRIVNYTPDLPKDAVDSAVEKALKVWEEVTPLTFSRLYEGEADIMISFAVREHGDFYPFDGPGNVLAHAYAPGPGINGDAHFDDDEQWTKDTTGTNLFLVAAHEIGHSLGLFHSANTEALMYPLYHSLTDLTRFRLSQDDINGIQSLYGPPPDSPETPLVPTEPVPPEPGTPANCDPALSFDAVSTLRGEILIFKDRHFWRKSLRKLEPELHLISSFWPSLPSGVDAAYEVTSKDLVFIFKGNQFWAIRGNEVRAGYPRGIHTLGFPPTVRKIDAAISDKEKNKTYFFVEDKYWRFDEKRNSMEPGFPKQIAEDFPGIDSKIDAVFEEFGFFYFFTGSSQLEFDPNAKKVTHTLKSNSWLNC
Chain of 72 kDa type IV collagenase (P08253 whole entry): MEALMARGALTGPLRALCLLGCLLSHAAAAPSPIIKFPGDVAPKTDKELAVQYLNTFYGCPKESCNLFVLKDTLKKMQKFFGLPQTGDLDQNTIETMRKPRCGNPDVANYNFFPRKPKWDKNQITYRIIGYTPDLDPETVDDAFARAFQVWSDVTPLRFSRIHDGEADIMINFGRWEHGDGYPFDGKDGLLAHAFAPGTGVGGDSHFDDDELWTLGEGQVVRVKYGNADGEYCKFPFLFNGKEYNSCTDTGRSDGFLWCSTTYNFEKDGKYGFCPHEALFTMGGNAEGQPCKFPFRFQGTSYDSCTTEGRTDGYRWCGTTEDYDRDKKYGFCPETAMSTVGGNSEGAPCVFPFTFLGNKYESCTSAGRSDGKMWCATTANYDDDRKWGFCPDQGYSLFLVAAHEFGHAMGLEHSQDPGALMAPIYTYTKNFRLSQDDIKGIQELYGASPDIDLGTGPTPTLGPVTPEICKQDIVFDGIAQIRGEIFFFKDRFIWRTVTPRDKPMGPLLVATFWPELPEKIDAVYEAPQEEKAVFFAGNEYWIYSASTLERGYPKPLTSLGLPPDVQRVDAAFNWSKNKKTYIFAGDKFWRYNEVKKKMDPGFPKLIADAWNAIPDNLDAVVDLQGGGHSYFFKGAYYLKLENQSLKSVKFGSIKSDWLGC
Chain of Macrophage metalloelastase (P39900 whole entry): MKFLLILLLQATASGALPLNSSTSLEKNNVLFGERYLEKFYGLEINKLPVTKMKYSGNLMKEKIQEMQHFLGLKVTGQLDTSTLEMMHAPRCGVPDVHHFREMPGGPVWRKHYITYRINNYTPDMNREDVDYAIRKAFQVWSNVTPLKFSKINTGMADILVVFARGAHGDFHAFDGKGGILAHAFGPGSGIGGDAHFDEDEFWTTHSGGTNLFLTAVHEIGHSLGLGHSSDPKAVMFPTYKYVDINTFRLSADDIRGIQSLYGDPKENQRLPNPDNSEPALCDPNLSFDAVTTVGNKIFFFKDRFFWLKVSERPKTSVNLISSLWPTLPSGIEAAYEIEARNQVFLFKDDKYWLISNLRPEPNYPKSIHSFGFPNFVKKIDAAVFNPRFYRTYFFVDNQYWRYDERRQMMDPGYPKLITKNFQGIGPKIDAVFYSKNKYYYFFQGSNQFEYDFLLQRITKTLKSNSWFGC
Chain of Disintegrin and metalloproteinase domain-containing protein 17 (O77636 whole entry, the tested form may be a part): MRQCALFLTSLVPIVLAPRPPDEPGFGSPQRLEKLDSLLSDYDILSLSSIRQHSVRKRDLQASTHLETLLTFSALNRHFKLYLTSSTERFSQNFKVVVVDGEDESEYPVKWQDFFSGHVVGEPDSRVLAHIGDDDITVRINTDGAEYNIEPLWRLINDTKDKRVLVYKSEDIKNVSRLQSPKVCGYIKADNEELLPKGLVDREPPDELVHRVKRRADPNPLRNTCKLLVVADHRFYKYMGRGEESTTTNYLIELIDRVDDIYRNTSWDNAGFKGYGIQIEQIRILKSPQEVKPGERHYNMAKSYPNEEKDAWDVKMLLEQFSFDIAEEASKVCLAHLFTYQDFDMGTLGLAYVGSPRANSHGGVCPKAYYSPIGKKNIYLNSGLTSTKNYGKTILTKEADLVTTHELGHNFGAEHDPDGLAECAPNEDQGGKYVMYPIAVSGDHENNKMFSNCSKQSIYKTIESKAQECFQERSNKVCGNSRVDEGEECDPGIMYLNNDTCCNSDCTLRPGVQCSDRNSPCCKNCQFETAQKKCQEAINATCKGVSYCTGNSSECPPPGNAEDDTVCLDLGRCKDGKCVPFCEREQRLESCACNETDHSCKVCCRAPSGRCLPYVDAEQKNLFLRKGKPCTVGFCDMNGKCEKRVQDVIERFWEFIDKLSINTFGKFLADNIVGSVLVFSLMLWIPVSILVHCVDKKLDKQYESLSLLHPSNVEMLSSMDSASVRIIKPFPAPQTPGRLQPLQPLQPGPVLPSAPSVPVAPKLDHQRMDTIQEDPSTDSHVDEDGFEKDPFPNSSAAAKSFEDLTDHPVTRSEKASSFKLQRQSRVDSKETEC
Chain of Matrix metalloproteinase-9 (P14780 whole entry): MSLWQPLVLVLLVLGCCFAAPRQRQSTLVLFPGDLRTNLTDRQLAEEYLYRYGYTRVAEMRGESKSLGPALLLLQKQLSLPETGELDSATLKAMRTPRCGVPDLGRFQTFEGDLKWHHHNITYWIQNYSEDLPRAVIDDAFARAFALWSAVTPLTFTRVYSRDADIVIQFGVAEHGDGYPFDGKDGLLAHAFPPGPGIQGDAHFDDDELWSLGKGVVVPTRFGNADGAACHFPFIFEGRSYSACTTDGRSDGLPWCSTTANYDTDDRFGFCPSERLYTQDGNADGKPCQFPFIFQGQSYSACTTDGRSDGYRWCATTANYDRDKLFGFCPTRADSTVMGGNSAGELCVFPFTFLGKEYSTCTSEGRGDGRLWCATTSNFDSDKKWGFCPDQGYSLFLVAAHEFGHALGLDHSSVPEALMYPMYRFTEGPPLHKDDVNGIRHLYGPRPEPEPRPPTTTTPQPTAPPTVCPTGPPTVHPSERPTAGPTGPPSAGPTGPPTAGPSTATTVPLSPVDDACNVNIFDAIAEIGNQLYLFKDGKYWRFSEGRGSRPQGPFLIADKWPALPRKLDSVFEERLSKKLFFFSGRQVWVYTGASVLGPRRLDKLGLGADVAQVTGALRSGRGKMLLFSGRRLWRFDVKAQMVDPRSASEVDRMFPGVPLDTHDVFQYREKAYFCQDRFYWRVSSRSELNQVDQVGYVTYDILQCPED

Take `Cc1cc(COc2ccc(C(=O)NC3CN(C(=O)OC(C)(C)C)CC34C(=O)NC(=O)NC4=O)cc2)c2ccccc2n1` (centres undefined): the Ki in test [1] was 1030 nM; at Matrilysin, above 6.37 µM; at Collagenase 3, above 5.21 µM; in test [2], above 3.33 µM; at Stromelysin-1, above 4.5 µM. For the same compound, in the test listed under Homo sapiens, the inhibition was 44%. Further, the IC50 is 128 nM in test [3] and 14 µM in the test on Blood.

On to `CC(=O)N1CC(NC(=O)c2ccc(OCc3cc(C)nc4ccccc34)cc2)C2(C1)C(=O)NC(=O)NC2=O` (centres undefined), for which the Ki is 580 nM in test [1]; above 6.37 µM on Matrilysin; 3.95 µM at Collagenase 3; above 3.33 µM in test [2]; above 4.5 µM at Stromelysin-1. The compound also showed an inhibition in the test filed under Homo sapiens of 44%. The IC50 in test [3] came to 55 nM; in the test on Blood it was 14 µM.

Take `Cc1cc(COc2ccc(C(=O)NCC3(C)C(=O)NC(=O)NC3=O)cc2)c2ccccc2n1`: the Ki in test [1] is above 6020 nM; on Matrilysin, above 6.37 µM; at Collagenase 3 it was above 5.02 µM; in test [2] it was above 3.33 µM; in [4], above 2130 nM; on Stromelysin-1, above 4.5 µM. Further, the Ki at Interstitial collagenase is above 4.95 µM. The compound further gave an inhibition in the test listed under Homo sapiens of 0%. This compound came in with an IC50 in test [3] of 26 nM.

As for `Cc1cc(COc2ccc(C(=O)NC3CN(C(=O)c4cccnc4)CC34C(=O)NC(=O)NC4=O)cc2)c2ccccc2n1` (centres undefined), the Ki in [1] was 130 nM; on Matrilysin, above 6.37 µM; at Collagenase 3, 1.31 µM; in test [2] it was above 3.33 µM; on Stromelysin-1 it was above 4.5 µM. In addition, the inhibition in the test filed under Homo sapiens was 17%. Also, the IC50 in [3] came out at 29 nM; in the test with Blood, 18.4 µM.

As for `CC(=O)N1CCN(C2(CNC(=O)c3ccc(OCc4cc(C)nc5ccccc45)cc3)C(=O)NC(=O)NC2=O)CC1`, the Ki in test [1] was above 6020 nM; at Matrilysin, above 6.37 µM; in test [2] it was above 3.33 µM; on Stromelysin-1, above 4.5 µM. In the test listed under Homo sapiens, this compound came in with an inhibition of 21%. For the same compound, the IC50 in test [3] is 5 nM; in the test on Blood it was above 50 µM.

For the compound `Cc1cc(COc2ccc(C(=O)NC3CN(S(C)(=O)=O)CC34C(=O)NC(=O)NC4=O)cc2)c2ccccc2n1` (centres undefined), the Ki in test [1] was 1290 nM; on Matrilysin it was above 6.37 µM; on Collagenase 3, 3.72 µM; in test [2], above 3.33 µM; on Stromelysin-1, above 4.5 µM. The same compound came in with an inhibition in the test listed under Homo sapiens of 26%. Also, the IC50 in test [3] worked out at 36 nM; with Blood, 12.6 µM.

Turning to `Cc1cc(COc2ccc(C(=O)NCC3(NC(=O)OC(C)(C)C)C(=O)NC(=O)NC3=O)cc2)c2ccccc2n1`, the Ki in test [1] is above 6020 nM; on Matrilysin, above 6.37 µM; in test [2], above 3.33 µM; at Stromelysin-1 it was above 4.5 µM. This compound also displayed an inhibition in the test listed under Homo sapiens of 16%. Besides, the IC50 was 13 nM in test [3] and above 50 µM with Blood.

Regarding `Cc1cc(COc2ccc(C(=O)NC3COCC34C(=O)NC(=O)NC4=O)cc2)c2ccccc2n1` (centres undefined), the Ki in test [1] was above 4040 nM; at Matrilysin, above 6.37 µM; on Collagenase 3, 3.53 µM; in test [2], above 3.33 µM; on Stromelysin-1, above 4.5 µM. This compound also had an inhibition in the test filed under Homo sapiens of 12%. Further, the results for the IC50 (in [3]; in the test on Blood) were 44 nM and 50 µM, respectively.

On to `Cc1cc(COc2ccc(C(=O)NCC3(Cc4ccccc4)C(=O)NC(=O)NC3=O)cc2)c2ccccc2n1`, for which the Ki in test [1] was 390 nM; on Matrilysin, above 6.37 µM; in test [2], 0.37 µM; at Stromelysin-1 it was 3.69 µM. The same compound had an inhibition in the test filed under Homo sapiens of 34%. Further, the IC50 in test [3] was 18 nM; in the test on Blood, above 50 µM.

As to `Cc1cc(COc2ccc(C(=O)NCC3(C4CCNCC4)C(=O)NC(=O)NC3=O)cc2)c2ccccc2n1`, the Ki is above 6020 nM in [1], above 6.37 µM on Matrilysin, above 3.33 µM in test [2] and above 4.5 µM at Stromelysin-1. This compound also registered an inhibition in the test filed under Homo sapiens of 1%. Besides, the IC50 in test [3] was 55 nM; in the test on Blood, 48.7 µM.

Turning to `Cc1cc(COc2ccc(C(=O)NCC3(N4CCN(S(C)(=O)=O)CC4)C(=O)NC(=O)NC3=O)cc2)c2ccccc2n1`, the Ki in test [1] was 1020 nM; at Matrilysin, above 6.37 µM; in [2], 2.17 µM; at Stromelysin-1 it was above 4.5 µM. The same compound displayed an inhibition in the test filed under Homo sapiens of 11%. In addition, the IC50 in test [3] is 2 nM; in the test on Blood, above 50 µM.
